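GI50 marks 50% less growth. TGI: total growth inhibition.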
How the values were obtained:
Assay in all cases: DTP human tumour cell line panel, 384-well format
786-0 renal = tested on: 786-0 renal
A498 renal = tested on: A498 renal
A549 NSCLC = tested on: A549 NSCLC
ACHN renal = tested on: ACHN renal
BT-549 breast = tested on: BT-549 breast
CAKI-1 renal = tested on: CAKI-1 renal
CCRF-CEM leukemia = tested on: CCRF-CEM leukemia
DU-145 prostate = tested on: DU-145 prostate
HCT-116 colon = tested on: HCT-116 colon
HCT-15 colon = tested on: HCT-15 colon
HL-60(TB) leukemia = tested on: HL-60(TB) leukemia
HOP-62 NSCLC = tested on: HOP-62 NSCLC
HOP-92 NSCLC = tested on: HOP-92 NSCLC
HS 578T breast = tested on: HS 578T breast
HT29 colon = tested on: HT29 colon
IGROV1 ovarian = tested on: IGROV1 ovarian
K-562 leukemia = tested on: K-562 leukemia
KM12 colon = tested on: KM12 colon
LOX IMVI melanoma = tested on: LOX IMVI melanoma
M14 melanoma = tested on: M14 melanoma
MALME-3M melanoma = tested on: MALME-3M melanoma
MCF7 breast = tested on: MCF7 breast
MDA-MB-231 breast = tested on: MDA-MB-231 breast
MDA-MB-435 melanoma = tested on: MDA-MB-435 melanoma
MDA-MB-468 breast = tested on: MDA-MB-468 breast
MOLT-4 leukemia = tested on: MOLT-4 leukemia
NCI-H226 lung = tested on: NCI-H226 lung
NCI-H23 lung = tested on: NCI-H23 lung
NCI-H522 lung = tested on: NCI-H522 lung
NCI/ADR-RES ovarian = tested on: NCI/ADR-RES ovarian
OVCAR-3 ovarian = tested on: OVCAR-3 ovarian
OVCAR-4 ovarian = tested on: OVCAR-4 ovarian
OVCAR-8 ovarian = tested on: OVCAR-8 ovarian
PC-3 prostate = tested on: PC-3 prostate
RPMI-8226 leukemia = tested on: RPMI-8226 leukemia
RXF 393 renal = tested on: RXF 393 renal
SF-268 CNS = tested on: SF-268 CNS
SF-295 CNS = tested on: SF-295 CNS
SF-539 CNS = tested on: SF-539 CNS
SK-MEL-2 melanoma = tested on: SK-MEL-2 melanoma
SK-MEL-28 melanoma = tested on: SK-MEL-28 melanoma
SK-OV-3 ovarian = tested on: SK-OV-3 ovarian
SN12C renal = tested on: SN12C renal
SNB-19 CNS = tested on: SNB-19 CNS
SNB-75 CNS = tested on: SNB-75 CNS
SW-620 colon = tested on: SW-620 colon
T-47D breast = tested on: T-47D breast
TK-10 renal = tested on: TK-10 renal
U251 glioblastoma = tested on: U251 glioblastoma
UACC-257 melanoma = tested on: UACC-257 melanoma
UACC-62 melanoma = tested on: UACC-62 melanoma
UO-31 renal = tested on: UO-31 renal
EKVX NSCLC = tested on: EKVX NSCLC
NCI-H322M lung = tested on: NCI-H322M lung
OVCAR-5 ovarian = tested on: OVCAR-5 ovarian

## O=NN(CCCl)C(=O)NC1CCCCC1
786-0 renal
  GI50: 20.2 µM
  TGI: 66.4 µM
A498 renal
  GI50: 73.1 µM
A549 NSCLC
  GI50: 51.8 µM
ACHN renal
  GI50: 24.9 µM
  TGI: 71.4 µM
BT-549 breast
  GI50: 21.4 µM
  TGI: 59.6 µM
CAKI-1 renal
  GI50: 22.9 µM
  TGI: 75.4 µM
CCRF-CEM leukemia
  GI50: 19.5 µM
  TGI: 33.8 µM
DU-145 prostate
  GI50: 51.9 µM
HCT-116 colon
  GI50: 32.3 µM
HCT-15 colon
  GI50: 19.1 µM
  TGI: 41.3 µM
HL-60(TB) leukemia
  GI50: 12.2 µM
  TGI: 24.8 µM
HOP-62 NSCLC
  GI50: 18.9 µM
  TGI: 56.5 µM
HOP-92 NSCLC
  GI50: 28.9 µM
HS 578T breast
  GI50: 13.1 µM
  TGI: 42.5 µM
HT29 colon
  GI50: 27.1 µM
  TGI: 78 µM
IGROV1 ovarian
  GI50: 78 µM
K-562 leukemia
  GI50: 20.1 µM
  TGI: 42.5 µM
KM12 colon
  GI50: 22.2 µM
  TGI: 86.8 µM
LOX IMVI melanoma
  GI50: 13.2 µM
  TGI: 38 µM
M14 melanoma
  GI50: 21.9 µM
  TGI: 65.2 µM
MALME-3M melanoma
  GI50: 18.6 µM
  TGI: 43.5 µM
MCF7 breast
  GI50: 41.1 µM
MDA-MB-231 breast
  GI50: 76.1 µM
MDA-MB-435 melanoma
  GI50: 26 µM
  TGI: 81.2 µM
MDA-MB-468 breast
  GI50: 13.2 µM
  TGI: 28.4 µM
MOLT-4 leukemia
  GI50: 12.4 µM
  TGI: 25 µM
NCI-H226 lung
  GI50: 29.9 µM
NCI-H23 lung
  GI50: 30.3 µM
NCI-H522 lung
  GI50: 15.4 µM
  TGI: 29 µM
NCI/ADR-RES ovarian
  GI50: 22.7 µM
  TGI: 54.4 µM
OVCAR-3 ovarian
  GI50: 27.4 µM
  TGI: 98 µM
OVCAR-4 ovarian
  GI50: 20.6 µM
  TGI: 50.3 µM
OVCAR-8 ovarian
  GI50: 21.4 µM
  TGI: 49.6 µM
PC-3 prostate
  GI50: 29 µM
RPMI-8226 leukemia
  GI50: 13.7 µM
  TGI: 26.9 µM
RXF 393 renal
  GI50: 17.3 µM
  TGI: 36 µM
SF-268 CNS
  GI50: 29.3 µM
SF-295 CNS
  GI50: 27.2 µM
SF-539 CNS
  GI50: 16.4 µM
  TGI: 35.3 µM
SK-MEL-2 melanoma
  GI50: 32.5 µM
  TGI: 78.9 µM
SK-MEL-28 melanoma
  GI50: 42.5 µM
SK-OV-3 ovarian
  GI50: 55.1 µM
SN12C renal
  GI50: 21.3 µM
  TGI: 61.2 µM
SNB-19 CNS
  GI50: 34.9 µM
SNB-75 CNS
  GI50: 34.6 µM
SW-620 colon
  GI50: 20.9 µM
  TGI: 69.1 µM
T-47D breast
  GI50: 34.6 µM
TK-10 renal
  GI50: 32.8 µM
U251 glioblastoma
  GI50: 18.9 µM
UACC-257 melanoma
  GI50: 52.1 µM
UACC-62 melanoma
  GI50: 12.5 µM
  TGI: 41.6 µM
UO-31 renal
  GI50: 24.3 µM
  TGI: 63.1 µM

## Nc1nc(=S)c2[nH]cnc2[nH]1
786-0 renal
  GI50: 0.469 µM
  TGI: 12 µM
A498 renal
  GI50: 4.85 µM
  TGI: 28.7 µM
A549 NSCLC
  GI50: 2.1 µM
  TGI: 7.53 µM
ACHN renal
  GI50: 1.52 µM
  TGI: 5.28 µM
BT-549 breast
  GI50: 0.449 µM
  TGI: 2.31 µM
CAKI-1 renal
  GI50: 0.371 µM
  TGI: 2.62 µM
CCRF-CEM leukemia
  GI50: 0.212 µM
  TGI: 0.383 µM
DU-145 prostate
  GI50: 0.311 µM
  TGI: 1.18 µM
EKVX NSCLC
  GI50: 0.544 µM
  TGI: 12.2 µM
HCT-116 colon
  GI50: 0.341 µM
  TGI: 7.39 µM
HCT-15 colon
  GI50: 0.988 µM
  TGI: 7.18 µM
HL-60(TB) leukemia
  GI50: 0.376 µM
  TGI: 1.1 µM
HOP-62 NSCLC
  GI50: 0.304 µM
  TGI: 0.784 µM
HOP-92 NSCLC
  GI50: 0.393 µM
  TGI: 25.2 µM
HS 578T breast
  GI50: 1.25 µM
  TGI: 4.46 µM
HT29 colon
  GI50: 0.906 µM
  TGI: 5.3 µM
IGROV1 ovarian
  GI50: 3.51 µM
  TGI: 27.7 µM
K-562 leukemia
  GI50: 0.366 µM
  TGI: 1.21 µM
KM12 colon
  GI50: 0.917 µM
  TGI: 4.9 µM
LOX IMVI melanoma
  GI50: 0.206 µM
  TGI: 0.426 µM
M14 melanoma
  GI50: 0.379 µM
  TGI: 4.41 µM
MALME-3M melanoma
  GI50: 0.718 µM
  TGI: 3.47 µM
MCF7 breast
  GI50: 0.297 µM
  TGI: 1.33 µM
MDA-MB-231 breast
  GI50: 0.283 µM
  TGI: 0.918 µM
MDA-MB-435 melanoma
  GI50: 1.09 µM
  TGI: 4.73 µM
MDA-MB-468 breast
  GI50: 0.238 µM
  TGI: 0.565 µM
MOLT-4 leukemia
  GI50: 0.112 µM
  TGI: 0.248 µM
NCI-H226 lung
  GI50: 0.36 µM
  TGI: 3.92 µM
NCI-H23 lung
  GI50: 0.377 µM
  TGI: 1.69 µM
NCI-H322M lung
  GI50: 2.21 µM
  TGI: 21.2 µM
NCI-H522 lung
  GI50: 1.03 µM
  TGI: 2.84 µM
NCI/ADR-RES ovarian
  GI50: 0.375 µM
  TGI: 1.52 µM
OVCAR-3 ovarian
  GI50: 0.306 µM
  TGI: 1.03 µM
OVCAR-4 ovarian
  GI50: 1.05 µM
  TGI: 7.19 µM
OVCAR-5 ovarian
  GI50: 0.199 µM
  TGI: 0.465 µM
OVCAR-8 ovarian
  GI50: 0.362 µM
  TGI: 1.56 µM
PC-3 prostate
  GI50: 1.34 µM
  TGI: 14.5 µM
RPMI-8226 leukemia
  GI50: 0.139 µM
  TGI: 0.296 µM
RXF 393 renal
  GI50: 0.728 µM
  TGI: 3.51 µM
SF-268 CNS
  GI50: 0.428 µM
  TGI: 2.4 µM
SF-295 CNS
  GI50: 0.248 µM
  TGI: 0.735 µM
SF-539 CNS
  GI50: 0.686 µM
  TGI: 7.92 µM
SK-MEL-2 melanoma
  GI50: 3.32 µM
  TGI: 7.34 µM
SK-MEL-28 melanoma
  GI50: 4.57 µM
  TGI: 26.7 µM
SK-OV-3 ovarian
  GI50: 0.541 µM
  TGI: 9.85 µM
SN12C renal
  GI50: 1.44 µM
  TGI: 8.29 µM
SNB-19 CNS
  GI50: 28 µM
SNB-75 CNS
  GI50: 0.353 µM
  TGI: 13.2 µM
SW-620 colon
  GI50: 3.02 µM
  TGI: 23.3 µM
T-47D breast
  GI50: 0.715 µM
  TGI: 15.5 µM
TK-10 renal
  GI50: 0.251 µM
  TGI: 0.625 µM
U251 glioblastoma
  GI50: 3.4 µM
  TGI: 83.3 µM
UACC-257 melanoma
  GI50: 1.13 µM
  TGI: 8.82 µM
UACC-62 melanoma
  GI50: 0.366 µM
  TGI: 1.69 µM
UO-31 renal
  GI50: 1.5 µM
  TGI: 11.8 µM
